Read-outs that look alike come from different tables or passages of the source.
What was measured:
[1] = system: P. falciparum 3D7 parasites; assay: P. falciparum growth inhibition assay, 2-cycle (120 h treatment), delayed-death screen and dose-response; assay type: cell-based, Plasmodium falciparum
[2] = system: P. falciparum 3D7 parasites; assay: P. falciparum growth inhibition assay, 1-cycle (72 h treatment), SYBR DNA staining (library screen at 2 μg/mL and dose-response); assay type: cell-based, Plasmodium falciparum
[3] = system: T. gondii RH strain (RH-Tub-eYFP) tachyzoites; assay: microbe, parasite or virus in culture; assay type: cell-based, Toxoplasma gondii; conditions: 72 h; for percent parasite growth at 2 µg/mL: Toxoplasma gondii
[4] = library screen at 2 μg/mL, 120 h, % growth, replicate 1
[5] = library screen at 2 μg/mL, 120 h, % growth, replicate 2
[6] = library screen at 2 μg/mL, 72 h, % growth, replicate 1
[7] = library screen at 2 μg/mL, 72 h, % growth, replicate 2
[8] = library screen at 2 μg/mL, % growth, replicate 1
[9] = library screen at 2 μg/mL, % growth, replicate 2
[10] = P. falciparum, 120 h, screen at 2 μg/mL, replicate 1
[11] = P. falciparum, 120 h, screen at 2 μg/mL, replicate 2
[12] = P. falciparum, 72 h, screen at 2 μg/mL, replicate 1
[13] = P. falciparum, 72 h, screen at 2 μg/mL, replicate 2
[14] = T. gondii, screen at 2 μg/mL, replicate 1
[15] = T. gondii, screen at 2 μg/mL, replicate 2

C[C@H]1CC[C@H]2[C@@H](C=C[C@@H]3[C@H]4[C@@H](C)O[C@]5(O)[C@@H](CO)N(C)C(=O)[C@]45C(=O)[C@@]32C)C1 [Fusarisetin A]
Pf_120h_%Growth_Rep1 [1, 4]: 74.69% | Pf_120h_%Growth_Rep2 [1, 5]: 108.30% | Pf_72h_%Growth_Rep1 [2, 6]: 74.99% | Pf_72h_%Growth_Rep2 [2, 7]: 87.91% | Tg_72h_%Growth_Rep1 [3, 8]: 159.47% | Tg_72h_%Growth_Rep2 [3, 9]: 97.52%

CS(=O)(=O)c1ccc([C@@H](O)[C@@H](CO)NC(=O)C(Cl)Cl)cc1 [Thiamphenicol, reference compound]
3) Fold change (72 h/120 h) ([1]; P. falciparum, growth at 72 h / growth at 120 h, 2 μg/mL): 2.5 | activity at 2 µg/mL ([1]; Plasmodium falciparum, 3D7; P. falciparum, 2 μg/mL, 120 h; read-out: 2) Growth (%) at 120 h): 19.8% | activity at 2 µg/mL ([1]; Plasmodium falciparum, 3D7, P. falciparum, 120 h, screen at 2 μg/mL, replicate 1, read-out: Pf_120h_%Growth_Rep1): 27.2% | activity at 2 µg/mL ([1]; Plasmodium falciparum, 3D7, P. falciparum, 120 h, screen at 2 μg/mL, replicate 2, read-out: Pf_120h_%Growth_Rep2): 12.3% | activity at 2 µg/mL ([2]; Plasmodium falciparum, 3D7; P. falciparum, 2 μg/mL, 72 h; read-out: 1) Growth (%) at 72 h): 49.5% | activity at 2 µg/mL ([2]; Plasmodium falciparum, 3D7, P. falciparum, 72 h, screen at 2 μg/mL, replicate 1, read-out: Pf_72h_%Growth_Rep1): 37.6% | activity at 2 µg/mL ([2]; Plasmodium falciparum, 3D7, P. falciparum, 72 h, screen at 2 μg/mL, replicate 2, read-out: Pf_72h_%Growth_Rep2): 61.4% | percent parasite growth at 2 µg/mL ([3]; T. gondii, screen at 2 μg/mL, replicate 1, read-out: Tg_72h_%Growth_Rep1): 106% | percent parasite growth at 2 µg/mL ([3]; T. gondii, screen at 2 μg/mL, replicate 2, read-out: Tg_72h_%Growth_Rep2): 98%

C=CC(C)(C)[C@@]12C[C@H]3C(=O)N4[C@@H](C[C@@]5(C(C)(C)C=C)c6ccccc6N[C@@H]45)C(=O)N3[C@@H]1Nc1ccccc12 [Amauromine]
activity at 2 µg/mL ([1]; Plasmodium falciparum, 3D7, 120 h, library screen at 2 μg/mL, 120 h, % growth, replicate 1, read-out: Pf_120h_%Growth_Rep1): 7.96% | activity at 2 µg/mL ([1]; Plasmodium falciparum, 3D7, 120 h, library screen at 2 μg/mL, 120 h, % growth, replicate 2, read-out: Pf_120h_%Growth_Rep2): 0.67% | activity at 2 µg/mL ([2]; Plasmodium falciparum, 3D7, 72 h, library screen at 2 μg/mL, 72 h, % growth, replicate 1, read-out: Pf_72h_%Growth_Rep1): 3.52% | activity at 2 µg/mL ([2]; Plasmodium falciparum, 3D7, 72 h, library screen at 2 μg/mL, 72 h, % growth, replicate 2, read-out: Pf_72h_%Growth_Rep2): 3.82% | percent parasite growth at 2 µg/mL ([3]; library screen at 2 μg/mL, % growth, replicate 1, read-out: Tg_72h_%Growth_Rep1): 139% | percent parasite growth at 2 µg/mL ([3]; library screen at 2 μg/mL, % growth, replicate 2, read-out: Tg_72h_%Growth_Rep2): 104%

CC1=C[C@H]2O[C@@H]3[C@H](O)[C@@H](O)[C@](C)([C@@]2(CO)[C@H](O)C1=O)[C@]31CO1 [BIA-N1920]
Pf_120h_%Growth_Rep1 ([1]; P. falciparum 3D7, 120 h, parasite screen at 2 μg/mL, % growth, replicate 1): 18.13% | Pf_120h_%Growth_Rep2 ([1]; P. falciparum 3D7, 120 h, parasite screen at 2 μg/mL, % growth, replicate 2): 5.74% | Pf_72h_%Growth_Rep1 ([2]; P. falciparum 3D7, 72 h, parasite screen at 2 μg/mL, % growth, replicate 1): 4.51% | Pf_72h_%Growth_Rep2 ([2]; P. falciparum 3D7, 72 h, parasite screen at 2 μg/mL, % growth, replicate 2): -2.70% | Tg_72h_%Growth_Rep1 ([3]; T. gondii, parasite screen at 2 μg/mL, % growth, replicate 1): 0.21% | Tg_72h_%Growth_Rep2 ([3]; T. gondii, parasite screen at 2 μg/mL, % growth, replicate 2): 0.91%

CCCC[C@@H](C)[C@@H](OC(=O)C[C@@H](CC(=O)O)C(=O)O)[C@H](C[C@@H](C)C[C@H](O)CCCC[C@@H](O)C[C@H](O)[C@H](C)N)OC(=O)C[C@@H](CC(=O)O)C(=O)O [Fumonisin B1]
Pf_120h_%Growth_Rep1 [1, 4]: 97.02% | Pf_120h_%Growth_Rep2 [1, 5]: 120.58% | Pf_72h_%Growth_Rep1 [2, 6]: 90.20% | Pf_72h_%Growth_Rep2 [2, 7]: 119.39% | Tg_72h_%Growth_Rep1 [3, 8]: 135.48% | Tg_72h_%Growth_Rep2 [3, 9]: 98.34%

CC(C)=CC(=O)C[C@H](C)c1ccc(C)cc1 [Turmerone]
Pf_120h_%Growth_Rep1 [1, 10]: 78.99% | Pf_120h_%Growth_Rep2 [1, 11]: 84.67% | Pf_72h_%Growth_Rep1 [2, 12]: 81.95% | Pf_72h_%Growth_Rep2 [2, 13]: 115.94% | Tg_72h_%Growth_Rep1 [3, 14]: 108.84% | Tg_72h_%Growth_Rep2 [3, 15]: 94.24%

CC(=O)N[C@H](COC(C)=O)[C@H](O)c1ccc([N+](=O)[O-])cc1 [Corynecin IV]
Pf_120h_%Growth_Rep1 [1, 10]: 80.18% | Pf_120h_%Growth_Rep2 [1, 11]: 96.02% | Pf_72h_%Growth_Rep1 [2, 12]: 87.87% | Pf_72h_%Growth_Rep2 [2, 13]: 87.15% | Tg_72h_%Growth_Rep1 [3, 14]: 146.78% | Tg_72h_%Growth_Rep2 [3, 15]: 106.28%

CC[C@@H](C(=O)[C@@H](C)[C@@H](O)[C@H](C)[C@@H]1O[C@@H]([C@@H](CC)C(=O)O)CC[C@@H]1C)[C@H]1O[C@]2(C=C[C@@H](O)[C@]3(CC[C@@](C)([C@H]4CC[C@](O)(CC)[C@H](C)O4)O3)O2)[C@H](C)C[C@@H]1C [Salinomycin sodium]
Pf_120h_%Growth_Rep1 ([1]; P. falciparum, 120 h, parasite screen 2 μg/mL, % growth, replicate 1): 8.77% | Pf_120h_%Growth_Rep2 ([1]; P. falciparum, 120 h, parasite screen 2 μg/mL, % growth, replicate 2): -2.16% | Pf_72h_%Growth_Rep1 ([2]; P. falciparum, 72 h, parasite screen 2 μg/mL, % growth, replicate 1): 3.74% | Pf_72h_%Growth_Rep2 ([2]; P. falciparum, 72 h, parasite screen 2 μg/mL, % growth, replicate 2): -3.65% | Tg_72h_%Growth_Rep1 ([3]; T. gondii, parasite screen 2 μg/mL, % growth, replicate 1): 1.25% | Tg_72h_%Growth_Rep2 ([3]; T. gondii, parasite screen 2 μg/mL, % growth, replicate 2): 0.43%

Source: paper PMC12396409, “Screening and hit evaluation of a microbial metabolite library against the pathogenic Plasmodium falciparum and Toxoplasma gondii parasites” (International Journal for Parasitology: Drugs and Drug …, 2025)
